From ChEMBL document CHEMBL3525964 (Drug Metab Dispos, 2012) come the findings set out here.

Data set [1] relates to Plasma. Description: Drug level in human plasma treated with [14C}LY2452473 at 15 mg, po after 8 hrs administered as single dose by HPLC analysis. The settings on record: in vivo. It counts as ADME, organism-based.
For data set [2], the target named is T1, Cytochrome P450 2C9 (Homo sapiens, UniProt P11712). Briefly: Drug metabolism in human liver microsomes assessed as CYP3A4-mediated drug depletion in presence of CYP2C9 inhibitor sulfaphenazole by LC-MS/MS method. It counts as ADME.
For data set [3], the system named is Plasma. Description: Drug level in human plasma treated with [14C}LY2452473 at 15 mg, po after 4 hrs administered as single dose by HPLC analysis relative to total radioactivity. The format is ADME, organism-based. The settings on record: in vivo.
Data set [4] addresses T2, Cytochrome P450 2D6 (Homo sapiens, UniProt P10635). Briefly: Fraction metabolized assessed as human recombinant CYP2D6-mediated drug depletion by LC-MS/MS method relative to total normalized intrinsic clearance. It counts as ADME. Particulars: recombinant enzyme.
The subject of data set [5] is Plasma. Briefly: Drug level in human plasma treated with [14C}LY2452473 at 15 mg, po after 4 hrs administered as single dose by HPLC analysis. It counts as ADME, organism-based. Particulars: in vivo.
The target of a further data set is T3, Cytochrome P450 1A2 (Homo sapiens, UniProt P05177).
T3 sequence (P05177 whole entry): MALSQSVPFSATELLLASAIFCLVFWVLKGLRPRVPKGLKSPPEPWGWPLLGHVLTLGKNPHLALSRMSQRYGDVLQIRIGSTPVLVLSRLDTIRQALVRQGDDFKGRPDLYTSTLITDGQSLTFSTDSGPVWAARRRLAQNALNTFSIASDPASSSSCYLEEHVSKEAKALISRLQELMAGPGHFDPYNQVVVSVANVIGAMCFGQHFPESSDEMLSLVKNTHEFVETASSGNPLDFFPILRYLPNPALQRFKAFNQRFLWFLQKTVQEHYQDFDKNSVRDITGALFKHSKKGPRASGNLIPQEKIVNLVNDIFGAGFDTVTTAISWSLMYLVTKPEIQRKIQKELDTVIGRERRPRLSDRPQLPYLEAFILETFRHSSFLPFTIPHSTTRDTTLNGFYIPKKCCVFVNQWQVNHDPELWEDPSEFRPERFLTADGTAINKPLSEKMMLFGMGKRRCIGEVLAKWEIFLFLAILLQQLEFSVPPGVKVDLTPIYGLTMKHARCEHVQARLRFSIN
Description: Drug metabolism assessed as human recombinant CYP1A2-mediated drug depletion by LC-MS/MS method. It counts as ADME. Particulars: recombinant enzyme.

The next data set addresses T4, Cytochrome P450 2J2 (Homo sapiens, UniProt P51589).
T4 sequence (P51589 whole entry): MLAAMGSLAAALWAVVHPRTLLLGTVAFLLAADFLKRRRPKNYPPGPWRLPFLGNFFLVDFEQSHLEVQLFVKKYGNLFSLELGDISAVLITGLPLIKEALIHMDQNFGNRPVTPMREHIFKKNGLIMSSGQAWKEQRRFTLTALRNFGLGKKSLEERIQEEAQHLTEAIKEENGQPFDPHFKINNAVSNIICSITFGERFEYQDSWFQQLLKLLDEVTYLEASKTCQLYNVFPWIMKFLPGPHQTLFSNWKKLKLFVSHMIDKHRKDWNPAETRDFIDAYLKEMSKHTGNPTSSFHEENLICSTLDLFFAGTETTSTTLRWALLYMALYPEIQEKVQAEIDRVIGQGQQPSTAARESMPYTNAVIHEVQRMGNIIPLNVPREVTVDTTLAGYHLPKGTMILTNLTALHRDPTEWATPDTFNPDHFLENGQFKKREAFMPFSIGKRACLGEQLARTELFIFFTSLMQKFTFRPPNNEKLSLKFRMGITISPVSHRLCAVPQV
Briefly: Fraction metabolized assessed as human recombinant CYP2J2-mediated drug depletion by LC-MS/MS method relative to total normalized intrinsic clearance. The format is ADME. Particulars: recombinant enzyme.

Data set [6] relates to Plasma. Description: Drug level in plasma of human treated with [14C}LY2452473 at 15 mg, po administered as single dose by LC-MS/MS method. The format is ADME, organism-based. The settings on record: in vivo.
In data set [7] the target is T1, Cytochrome P450 2C9. Description: Normalized intrinsic clearance assessed as human recombinant CYP2C9-mediated drug depletion per pmol protein by LC-MS/MS method. The format is ADME. The settings on record: recombinant enzyme.
Another data set has as its target Cytochrome P450 2C19 (Homo sapiens, UniProt P33261). Briefly: Drug metabolism in human liver microsomes assessed as CYP3A4-mediated drug depletion in presence of CYP2C19 inhibitor modafinil by LC-MS/MS method. The format is ADME. For orientation: Microsomes from liver hold many membrane-bound enzymes, among them those of drug oxidation.
Data set [8] in a line: Drug excretion in feces of human treated with [14C}LY2452473 at 15 mg, po administered as single dose by HPLC analysis. The format is ADME, organism-based. Particulars: read-out: Drug excretion.
For the next data set, the system named is Homo sapiens. Briefly: Cmax in human at 15 mg, po administered as single dose by liquid scintillation counting method. It counts as ADME, organism-based. More on the design: dose 15 mg, route oral. Particulars: in vivo.
Data set [9] has as its target T5, Cytochrome P450 3A4 (Homo sapiens, UniProt P08684). Description: Drug metabolism in human liver microsomes assessed as CYP3A4-mediated drug depletion in presence of CYP2D6 inhibitor quinidine by LC-MS/MS method. The format is ADME.
The target of the next data set is Cytochrome P450 3A5 (Homo sapiens, UniProt P20815). Description: Drug metabolism assessed as human recombinant CYP3A5-mediated drug depletion by LC-MS/MS method. It counts as ADME. The settings on record: recombinant enzyme.
In data set [10] the target is T5, Cytochrome P450 3A4. Briefly: Drug metabolism in human liver microsomes assessed as CYP3A4-mediated drug depletion in presence of CYP3A4 inhibitor ketoconazole by LC-MS/MS method. The format is ADME.
Data set [11] can be described thus: Drug level in urine of human treated with [14C}LY2452473 at 15 mg, po administered as single dose by LC-MS/MS method. It counts as ADME, organism-based. Particulars: in vivo.
Data set [12] has as its target T2, Cytochrome P450 2D6. Description: Normalized intrinsic clearance assessed as human recombinant CYP2D6-mediated drug depletion per pmol protein by LC-MS/MS method. The format is ADME. The settings on record: recombinant enzyme.
The subject of data set [13] is Plasma. Description: Drug level in human plasma treated with [14C}LY2452473 at 15 mg, po after 48 hrs administered as single dose by HPLC analysis. The format is ADME, organism-based. The settings on record: in vivo.
The subject of data set [14] is Plasma. Description: Drug level in human plasma treated with [14C}LY2452473 at 15 mg, po after 24 hrs administered as single dose by HPLC analysis. It counts as ADME, organism-based. Particulars: in vivo.

T5 sequence (P08684 whole entry): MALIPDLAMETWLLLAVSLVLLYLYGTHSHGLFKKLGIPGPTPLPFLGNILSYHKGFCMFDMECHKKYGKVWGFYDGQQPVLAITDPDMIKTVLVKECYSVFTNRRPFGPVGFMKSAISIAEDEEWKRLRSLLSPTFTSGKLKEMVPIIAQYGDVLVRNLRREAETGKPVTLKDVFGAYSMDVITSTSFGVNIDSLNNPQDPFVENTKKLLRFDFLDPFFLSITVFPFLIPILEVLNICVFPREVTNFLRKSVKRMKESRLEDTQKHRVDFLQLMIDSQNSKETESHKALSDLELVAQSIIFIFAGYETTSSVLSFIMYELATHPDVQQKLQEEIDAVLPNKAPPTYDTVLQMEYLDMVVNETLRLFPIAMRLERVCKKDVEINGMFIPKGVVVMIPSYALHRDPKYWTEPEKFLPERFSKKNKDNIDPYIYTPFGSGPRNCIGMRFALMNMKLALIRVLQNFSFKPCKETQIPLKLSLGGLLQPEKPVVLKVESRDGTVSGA
T1 sequence (P11712 whole entry): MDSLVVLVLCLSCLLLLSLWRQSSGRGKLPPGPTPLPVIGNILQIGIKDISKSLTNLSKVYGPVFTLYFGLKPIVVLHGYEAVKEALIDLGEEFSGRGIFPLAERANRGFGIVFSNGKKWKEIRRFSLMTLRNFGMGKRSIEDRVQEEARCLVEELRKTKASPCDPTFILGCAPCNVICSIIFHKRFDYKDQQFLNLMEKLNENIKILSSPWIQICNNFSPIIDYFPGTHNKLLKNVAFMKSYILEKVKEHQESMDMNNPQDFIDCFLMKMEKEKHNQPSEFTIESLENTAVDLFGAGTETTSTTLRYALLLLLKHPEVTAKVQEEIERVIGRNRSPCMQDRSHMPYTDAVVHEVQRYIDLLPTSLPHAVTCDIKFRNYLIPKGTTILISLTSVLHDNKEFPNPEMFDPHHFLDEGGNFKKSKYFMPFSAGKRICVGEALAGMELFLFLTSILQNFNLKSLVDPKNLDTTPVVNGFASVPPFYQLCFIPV
T2 sequence (P10635 whole entry): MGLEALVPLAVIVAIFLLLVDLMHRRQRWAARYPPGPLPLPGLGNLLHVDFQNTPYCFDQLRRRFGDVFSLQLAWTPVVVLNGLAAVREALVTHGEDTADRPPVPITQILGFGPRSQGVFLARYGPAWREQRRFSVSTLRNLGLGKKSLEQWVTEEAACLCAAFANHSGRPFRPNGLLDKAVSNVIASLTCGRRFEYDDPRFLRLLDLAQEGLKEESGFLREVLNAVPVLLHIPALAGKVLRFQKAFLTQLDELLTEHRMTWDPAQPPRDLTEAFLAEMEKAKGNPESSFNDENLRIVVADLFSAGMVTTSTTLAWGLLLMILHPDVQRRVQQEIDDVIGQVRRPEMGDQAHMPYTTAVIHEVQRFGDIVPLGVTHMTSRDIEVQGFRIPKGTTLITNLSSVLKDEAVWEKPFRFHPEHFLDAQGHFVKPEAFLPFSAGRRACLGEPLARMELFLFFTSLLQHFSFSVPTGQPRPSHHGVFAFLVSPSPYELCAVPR
Chain of Cytochrome P450 3A5 (P20815 whole entry): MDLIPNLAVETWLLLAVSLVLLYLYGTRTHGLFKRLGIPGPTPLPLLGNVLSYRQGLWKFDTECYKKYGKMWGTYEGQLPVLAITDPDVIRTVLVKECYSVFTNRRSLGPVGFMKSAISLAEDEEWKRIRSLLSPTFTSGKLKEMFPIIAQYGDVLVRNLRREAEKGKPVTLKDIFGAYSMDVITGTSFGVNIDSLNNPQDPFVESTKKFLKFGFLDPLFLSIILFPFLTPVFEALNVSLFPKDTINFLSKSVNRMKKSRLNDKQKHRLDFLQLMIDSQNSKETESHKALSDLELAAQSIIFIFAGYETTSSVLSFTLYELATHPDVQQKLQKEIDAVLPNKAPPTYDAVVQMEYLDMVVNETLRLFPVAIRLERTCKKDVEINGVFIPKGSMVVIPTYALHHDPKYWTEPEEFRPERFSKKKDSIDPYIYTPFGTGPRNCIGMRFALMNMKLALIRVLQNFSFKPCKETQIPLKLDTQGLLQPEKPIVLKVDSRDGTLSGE
Chain of Cytochrome P450 2C19 (P33261 whole entry): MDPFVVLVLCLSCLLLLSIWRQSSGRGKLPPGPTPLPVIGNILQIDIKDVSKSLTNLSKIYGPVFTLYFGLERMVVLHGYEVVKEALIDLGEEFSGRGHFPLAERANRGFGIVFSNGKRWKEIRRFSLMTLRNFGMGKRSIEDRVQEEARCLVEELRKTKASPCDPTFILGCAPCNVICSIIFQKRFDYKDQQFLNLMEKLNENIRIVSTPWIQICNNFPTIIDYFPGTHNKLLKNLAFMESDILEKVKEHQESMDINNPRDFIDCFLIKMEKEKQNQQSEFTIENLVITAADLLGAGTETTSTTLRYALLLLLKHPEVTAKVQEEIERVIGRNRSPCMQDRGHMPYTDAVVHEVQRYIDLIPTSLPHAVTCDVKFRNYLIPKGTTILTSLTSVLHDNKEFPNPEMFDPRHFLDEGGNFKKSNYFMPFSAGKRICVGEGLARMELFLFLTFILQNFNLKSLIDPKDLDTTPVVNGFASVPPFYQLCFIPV

Usually Cmax stands for the maximum level reached in the sampled fluid or tissue. Turning to `CC(C)OC(=O)N[C@H]1Cc2c(n(Cc3ccccn3)c3ccc(C#N)cc23)C1` [LY2452473], the Drug uptake in the data set on Plasma [1] is given as 42.36%; with Plasma [3] it was 42.2%; in the data set with Plasma [5] it was 66.33%; with Plasma [13], 27.67%; with Plasma [14], 28.81%. Moreover, the Drug metabolism result on Cytochrome P450 2C9 [2] was “metabolite_not_detected”; at Cytochrome P450 1A2, “metabolite_not_detected”; in the data set with Plasma [6], “metabolite_detected”; at Cytochrome P450 2C19 it was “metabolite_not_detected”; at Cytochrome P450 3A4 [9], “metabolite_not_detected”; on Cytochrome P450 3A5, “metabolite_not_detected”. The Drug metabolism entry on Cytochrome P450 3A4 [10] is given as “metabolite_not_detected”; in data set [11], “metabolite_detected”. Besides, the Fm at Cytochrome P450 2D6 [4] is listed as 2.6%; on Cytochrome P450 2J2, 15%. Also, the CL on Cytochrome P450 2C9 [7] stood at 10 µL/min; at Cytochrome P450 2D6 [12] it was 3 µL/min. In addition, the dose excreted in data set [8] was 1.84%. In addition, the highest concentration (Cmax) with Homo sapiens is 91.5 ng/mL.
